Experimental data published in PubChem BioAssay AID1963868 (Molecular Pharmacology Branch, DTP, NCI, 2024).
“And” between values parts separate entries of the source, which are not always exact repeats. Identical values can stand only once.

Tested on: KRAS PDC tumor spheroids (HUVEC+MSC), viability
Assay: Anticancer human tumor 254851-301-R-J1-PDC patient-derived colon carcinoma cell line growth inhibition [KRAS2]
Details: for viability, T/C: stronger effect = lower value
Summary of the method: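 KRAS-mutant tumor cells were grown as spheroids with HUVEC endothelial cells and human MSCs as stroma. Targeted agents were tested alone and with KRAS pathway inhibitors. Doses started at or near clinical Cmax, or 10 microM, descending half-log.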

[1] = curve of first compound, second compound 0.1 µM
[2] = curve of first compound, second compound 0.316 µM
[3] = curve of first compound, second compound 1 µM
[4] = curve of first compound, second compound 3.16 µM
[5] = curve of first compound, second compound 10 µM
[6] = second compound 0.1 µM, first compound 0.0316 µM
[7] = second compound 0.1 µM, first compound 0.1 µM
[8] = second compound 0.1 µM, first compound 0.316 µM
[9] = second compound 0.1 µM, first compound 1 µM
[10] = second compound 0.1 µM, first compound 3.16 µM
[11] = second compound 0.1 µM, first compound 10 µM
[12] = second compound 0.316 µM, first compound 0.0316 µM
[13] = second compound 0.316 µM, first compound 0.1 µM
[14] = second compound 0.316 µM, first compound 0.316 µM
[15] = second compound 0.316 µM, first compound 1 µM
[16] = second compound 0.316 µM, first compound 3.16 µM
[17] = second compound 0.316 µM, first compound 10 µM
[18] = second compound 1 µM, first compound 0.0316 µM
[19] = second compound 1 µM, first compound 0.1 µM
[20] = second compound 1 µM, first compound 0.316 µM
[21] = second compound 1 µM, first compound 1 µM
[22] = second compound 1 µM, first compound 3.16 µM
[23] = second compound 1 µM, first compound 10 µM
[24] = second compound 3.16 µM, first compound 0.0316 µM
[25] = second compound 3.16 µM, first compound 0.1 µM
[26] = second compound 3.16 µM, first compound 0.316 µM
[27] = second compound 3.16 µM, first compound 1 µM
[28] = second compound 3.16 µM, first compound 3.16 µM
[29] = second compound 3.16 µM, first compound 10 µM
[30] = second compound 10 µM, first compound 0.0316 µM
[31] = second compound 10 µM, first compound 0.1 µM
[32] = second compound 10 µM, first compound 0.316 µM
[33] = second compound 10 µM, first compound 1 µM
[34] = second compound 10 µM, first compound 3.16 µM
[35] = second compound 10 µM, first compound 10 µM
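Also: spheroids exposed to compounds for seven days before readout.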
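For viability, T/C in this document: 100% = DMSO vehicle control luminescence of the spheroids.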

Structure (SMILES) | IC50 [1] [nM] | IC50 [2] [nM] | IC50 [3] [nM] | IC50 [4] [nM] | IC50 [5] [nM] | viability, T/C [6] [%] | viability, T/C [7] [%] | viability, T/C [8] [%] | viability, T/C [9] [%] | viability, T/C [10] [%] | viability, T/C [12] [%] | viability, T/C [13] [%] | viability, T/C [14] [%] | viability, T/C [15] [%] | viability, T/C [16] [%] | viability, T/C [18] [%] | viability, T/C [19] [%] | viability, T/C [20] [%] | viability, T/C [21] [%] | viability, T/C [22] [%] | other results
CCNC(=O)CC1N=C(c2ccc(Cl)cc2)c2cc(OC)ccc2-n2c(C)nnc21 (stereo unspecified) + CC1OCC2(CCN(c3cnc(Sc4ccnc(N)c4Cl)c(N)n3)CC2)C1N | > 10000 | > 10000 | > 10000 | 5860 | > 10000 | 111 | 103 | 99.9 | 95.6 | 94.9 | 94.2 | 108 | 81.9 | 89.5 | 77.8 | 84.8 | 83.3 | 93.1 | 73.9 | 86.1 | viability, T/C [11]: 77.2%; viability, T/C [17]: 68.5%; viability, T/C [23]: 65.6%; viability, T/C [24]: 73%; viability, T/C [25]: 69.3%; viability, T/C [26]: 73%; viability, T/C [27]: 67%; viability, T/C [28]: 58.9%; viability, T/C [29]: 42%; viability, T/C [30]: 70.5%; viability, T/C [31]: 67.4%; viability, T/C [32]: 57.8%; viability, T/C [33]: 56.5%; viability, T/C [34]: 56.5%; viability, T/C [35]: 50.5%
CC1(C)CCC(CN2CCN(c3ccc(C(=O)NS(=O)(=O)c4ccc(NCC5CCOCC5)c([N+](=O)[O-])c4)c(Oc4cnc5[nH]ccc5c4)c3)CC2)=C(c2ccc(Cl)cc2)C1 + C=CC(=O)N1CCN(c2nc(=O)n(-c3c(C)ccnc3C(C)C)c3nc(-c4c(O)cccc4F)c(F)cc23)C(C)C1 | > 10000 | > 10000 | > 10000 | > 10000 | > 10000 | 106 | 112 | 98.2 | 95.4 | 95.3 | 106 | 115 | 91.2 | 95.1 | 91.3 | 114 | 115 | 105 | 104 | 93.8 | viability, T/C [11]: 73.6%; viability, T/C [17]: 91.6%; viability, T/C [23]: 74.3%; viability, T/C [24]: 102%; viability, T/C [25]: 119%; viability, T/C [26]: 102%; viability, T/C [27]: 103%; viability, T/C [28]: 92.7%; viability, T/C [29]: 84.9%; viability, T/C [30]: 109%; viability, T/C [31]: 109%; viability, T/C [32]: 97.8%; viability, T/C [33]: 107%; viability, T/C [34]: 93.8%; viability, T/C [35]: 83.7%
O=C(c1cc(Cc2n[nH]c(=O)c3ccccc23)ccc1F)N1CCN(C(=O)C2CC2)CC1 + CC1OCC2(CCN(c3cnc(Sc4ccnc(N)c4Cl)c(N)n3)CC2)C1N | > 10000 | > 10000 | > 10000 | > 10000 | > 10000 | 104 | 107 | 93.8 | 88 | 102 | 92.8 | 95 | 90.6 | 93.7 | 94.7 | 93.6 | 87.1 | 80.6 | 83.7 | 87.6 | viability, T/C [11]: 91.3%; viability, T/C [17]: 92.4%; viability, T/C [23]: 84%; viability, T/C [24]: 79.4%; viability, T/C [25]: 73.1%; viability, T/C [26]: 73.2%; viability, T/C [27]: 71.2%; viability, T/C [28]: 79.3%; viability, T/C [29]: 65.5%; viability, T/C [30]: 68.9%; viability, T/C [31]: 75.4%; viability, T/C [32]: 66.1%; viability, T/C [33]: 59.9%; viability, T/C [34]: 58.1%; viability, T/C [35]: 60.7%
CC1COCCN1c1cc(-c2ccnn2C)c2ccnc(-c3ccn[nH]3)c2n1 (stereo unspecified) + C=CC(=O)N1CCN(c2nc(=O)n(-c3c(C)ccnc3C(C)C)c3nc(-c4c(O)cccc4F)c(F)cc23)C(C)C1 | 299 | 288 | 369 | 79.7 | 186 | 96.8 | 65.9 | 50 | 35.4 | 22 | 96.8 | 74.2 | 47.6 | 32.1 | 23.5 | 85.3 | 66.9 | 51.6 | 36.7 | 20.8 | viability, T/C (second compound 0.1 µM, first compound 0.01 µM): 112%; viability, T/C (second compound 0.316 µM, first compound 0.01 µM): 96.5%; viability, T/C (second compound 1 µM, first compound 0.01 µM): 87.6%; viability, T/C (second compound 3.16 µM, first compound 0.01 µM): 74.5%; viability, T/C [24]: 70.3%; viability, T/C [25]: 45.2%; viability, T/C [26]: 27.3%; viability, T/C [27]: 29.7%; viability, T/C [28]: 34.8%; viability, T/C (second compound 10 µM, first compound 0.01 µM): 103%; viability, T/C [30]: 87.3%; viability, T/C [31]: 59.5%; viability, T/C [32]: 40.8%; viability, T/C [33]: 29.9%; viability, T/C [34]: 22.5%
COc1cc(Nc2ncc3c(n2)-c2ccc(Cl)cc2C(c2c(F)cccc2OC)=NC3)ccc1C(=O)O + COc1cc2nc(C)nc(NC(C)c3cc(N)cc(C(F)(F)F)c3)c2cc1OC1CCOC1 | 88.4 | 85.9 | 80.7 | 77.1 | 48.3 | 77.7 | 42 | 31.5 | 25.1 | 14 | 83.9 | 39.8 | 30.7 | 24.1 | 17 | 77.4 | 39.1 | 30.1 | 24.6 | 18.5 | viability, T/C [11]: 9.19%; viability, T/C [17]: 8.65%; viability, T/C [23]: 8.42%; viability, T/C [24]: 74.5%; viability, T/C [25]: 38.8%; viability, T/C [26]: 30.2%; viability, T/C [27]: 25.8%; viability, T/C [28]: 20.3%; viability, T/C [29]: 10.9%; viability, T/C [30]: 58.6%; viability, T/C [31]: 34.1%; viability, T/C [32]: 28.9%; viability, T/C [33]: 25%; viability, T/C [34]: 22.4%; viability, T/C [35]: 16.4%
Cn1nccc1Nc1nccc(-c2cc3c(s2)C(C)(C)N(CCN2CCOCC2)C3=O)n1 + C=CC(=O)N1CCN(c2nc(=O)n(-c3c(C)ccnc3C(C)C)c3nc(-c4c(O)cccc4F)c(F)cc23)C(C)C1 | 2760 | 3750 | 2570 | 1910 | 3100 | 87.5 | 94.5 | 94.5 | 96.8 | 44.1 | 102 | 92.2 | 102 | 88 | 58.2 | 95.5 | 91.2 | 91.9 | 79.5 | 43.5 | viability, T/C [11]: 4.13%; viability, T/C [17]: 4.04%; viability, T/C [23]: 5.08%; viability, T/C [24]: 73.7%; viability, T/C [25]: 82.7%; viability, T/C [26]: 78.6%; viability, T/C [27]: 77.6%; viability, T/C [28]: 28.6%; viability, T/C [29]: 3.74%; viability, T/C [30]: 97.1%; viability, T/C [31]: 97.1%; viability, T/C [32]: 79.7%; viability, T/C [33]: 74.9%; viability, T/C [34]: 51.5%; viability, T/C [35]: 4.35%
CC(C)NCC(C(=O)N1CCN(c2ncnc3c2C(C)CC3O)CC1)c1ccc(Cl)cc1 (stereo unspecified) |  |  |  |  |  |  |  |  |  |  |  |  |  |  |  |  |  |  |  |  | viability, T/C (compound 0.0316 µM): 100% and 101% (3×) and 105%; viability, T/C (compound 0.1 µM): 103% [middle of 5 runs]; viability, T/C (compound 0.316 µM): 99.5% [middle of 5 runs]; viability, T/C (compound 1 µM): 104% [middle of 5 runs]; viability, T/C (compound 10 µM): 98.9% [middle of 5 runs]; IC50 (curve of compound): > 10000 nM
